Assay results reported in ChEMBL document CHEMBL1697781, “Assessment of the health effects of chemicals in humans: II. Construction of an adverse effects database for QSAR modeling” (Curr Drug Discov Technol, 2004).

Assays:
Details in all cases: human; call rule not given here
[1] = test system: Hepatotoxicity; assay: FDA HLAED, alkaline phosphatase increase
[2] = test system: Hepatotoxicity; assay: FDA HLAED, serum glutamic oxaloacetic transaminase (SGOT) increase
[3] = test system: Hepatotoxicity; assay: FDA HLAED, gamma-glutamyl transferase (GGT) increase
[4] = test system: Hepatotoxicity; assay: FDA HLAED, lactate dehydrogenase (LDH) increase
[5] = test system: Hepatotoxicity; assay: FDA HLAED, serum glutamic pyruvic transaminase (SGPT) increase
[6] = test system: Hepatotoxicity; assay: FDA HLAED, liver enzyme composite activity
For GGT Increase - Index Value in this document: reference of the scale not given here.
For LDH Increase - Index Value in this document: reference of the scale not given here.

| Compound | Alkaline Phosphatase Increase - Activity Score [1] | Alkaline Phosphatase Increase - Index Value [1] | Alkaline Phosphatase Increase - Number of Reports [1] | SGOT Increase - Activity Score [2] | SGOT Increase - Index Value [2] | SGOT Increase - Number of Reports [2] | GGT Increase - Activity Score [3] | GGT Increase - Index Value [3] | GGT Increase - Number of Reports [3] | LDH Increase - Activity Score [4] | LDH Increase - Index Value [4] | LDH Increase - Number of Reports [4] | SGPT Increase - Activity Score [5] | SGPT Increase - Index Value [5] | SGPT Increase - Number of Reports [5] | Composite Activity - Active [6] | Composite Activity - Marginal [6] | Composite Activity - Score [6] |
| --- | --- | --- | --- | --- | --- | --- | --- | --- | --- | --- | --- | --- | --- | --- | --- | --- | --- | --- |
| NCC1(CC(=O)O)CCCCC1 [GABAPENTIN] | Inactive | 0.7 | >= 4 | Inactive | 0.8 | >= 4 | Inactive | 0.7 | >= 4 | Inactive | 0.4 | < 4 | Inactive | 0.8 | >= 4 | 0 | 0 | Inactive |
| Nc1nc(O)c2ncn(COC(CO)CO)c2n1 [GANCICLOVIR] | Active | 4.2 | >= 4 | Inactive | 2.7 | >= 4 | Inactive | 0.8 | < 4 | Inactive | 1.9 | >= 4 | Inactive | 2.3 | >= 4 | 1 | 0 | Inactive |
| Nc1ccn([C@@H]2O[C@H](CO)[C@@H](O)C2(F)F)c(=O)n1 [GEMCITABINE] | Inactive | 4.3 | < 4 | Inactive | 1.4 | < 4 | Inactive | 1.4 | < 4 | Inactive | 1.4 | < 4 | Inactive | 1.4 | < 4 | 0 | 0 | Inactive |
| Cc1ccc(C)c(OCCCC(C)(C)C(=O)O)c1 [GEMFIBROZIL] | Inactive | 0 | < 4 | Inactive | 0 | < 4 | Inactive | 0 | < 4 | Inactive | 0 | < 4 | Inactive | 0 | < 4 | 0 | 0 | Inactive |
| CCC1=C(C)CN(C(=O)NCCc2ccc(S(=O)(=O)NC(=O)N[C@H]3CC[C@H](C)CC3)cc2)C1=O [GLIMEPIRIDE] | Inactive | 1.2 | < 4 | Inactive | 1.2 | < 4 | Inactive | 1.2 | < 4 | Inactive | 0 | < 4 | Inactive | 1.2 | < 4 | 0 | 0 | Inactive |
| COc1ccc(Cl)cc1C(=O)NCCc1ccc(S(=O)(=O)NC(=O)NC2CCCCC2)cc1 [GLYBURIDE] | Marginally Active | 3.4 | >= 4 | Inactive | 1.8 | >= 4 | Inactive | 0 | < 4 | Inactive | 0.8 | >= 4 | Inactive | 2.2 | >= 4 | 0 | 1 | Inactive |
| CN1C2CCCC1CC(NC(=O)c1nn(C)c3ccccc13)C2 (stereo unspecified) [GRANISETRON] | Inactive | 1 | >= 4 | Inactive | 0.6 | < 4 | Inactive | 0.2 | < 4 | Inactive | 0.2 | < 4 | Inactive | 0.6 | < 4 | 0 | 0 | Inactive |
| N=C(N)N/N=C/c1c(Cl)cccc1Cl [GUANABENZ] | Inactive | 0 | < 4 | Inactive | 0.9 | < 4 | Inactive | 0 | < 4 | Inactive | 0.3 | < 4 | Inactive | 0.6 | < 4 | 0 | 0 | Inactive |
| N=C(N)NC(=O)Cc1c(Cl)cccc1Cl [GUANFACINE] | Inactive | 1 | < 4 | Inactive | 1.3 | >= 4 | Inactive | 0 | < 4 | Inactive | 0.6 | < 4 | Inactive | 0.3 | < 4 | 0 | 0 | Inactive |
| O=C1CN=C(c2ccccc2)c2cc(Cl)ccc2N1CC(F)(F)F [HALAZEPAM] | Inactive | 0 | < 4 | Inactive | 0 | < 4 | Inactive | 0 | < 4 | Inactive | 0 | < 4 | Inactive | 0 | < 4 | 0 | 0 | Inactive |
| C[C@H]1C[C@H]2[C@@H]3C[C@H](F)C4=CC(=O)C=C[C@]4(C)[C@@]3(F)[C@@H](O)C[C@]2(C)[C@@]1(O)C(=O)CCl [HALOBETASOL] | Inactive | 0 | < 4 | Inactive | 0 | < 4 | Inactive | 0 | < 4 | Inactive | 0 | < 4 | Inactive | 0 | < 4 | 0 | 0 | Inactive |
| CN1CC[C@]23c4c5ccc(O)c4O[C@H]2C(=O)CC[C@H]3[C@H]1C5 [HYDROMORPHONE] | Inactive | 0 | < 4 | Inactive | 0 | < 4 | Inactive | 0 | < 4 | Inactive | 0 | < 4 | Inactive | 0 | < 4 | 0 | 0 | Inactive |
